These molecules were tested on ABCA-1 gene (assay: compounds tested and found to elevate cellular expression of the ABCA-1 gene (Examples 1-6; test not named)).
Assay type: cell-based
Description: Activity testing is conducted as described in those patents and patent applications referenced above, and in the Examples below, and by methods apparent to one skilled in the art.

SMILES | cellular expression of the ABCA-1 gene
CCCN(C(=O)Nc1cccc(F)c1)C(C)c1nc2ccccc2c(=O)n1-c1ccc2ccccc2c1 (stereo not drawn) [[(3-fluorophenyl)amino]-N-[(3-(2-naphthyl)-4-oxo(3-hydroquinazolin-2-yl))ethyl]-N-propylcarboxamide] | elevate cellular expression of the ABCA-1 gene
COc1ccc(C(=O)O/N=C(/N)c2cccnc2)cc1 [(1E)-2-amino-1-aza-2-(3-pyridyl)vinyl 4-methoxybenzoate] | elevate cellular expression of the ABCA-1 gene
C1=C(c2ccccc2)Nc2nc3ccccc3n2C1c1ccccc1 (stereo not drawn) [2,4-diphenyl-1,4,5-trihydropyrimidino[1,2-a]benzimidazole] | elevate cellular expression of the ABCA-1 gene
O=C(Nc1nc2ccccc2c(=O)o1)c1ccc(Cl)cc1 [(4-chlorophenyl)-N-(4-oxobenzo[d]1,3-oxazin-2-yl)carboxamide] | elevate cellular expression of the ABCA-1 gene
CCOC(=O)C1CCCCN1C(=O)c1ccc2c(c1)OCO2 (stereo not drawn) [ethyl 1-(2H-benzo[d]1,3-dioxolen-5-ylcarbonyl)piperidine-2-carboxylate] | elevate cellular expression of the ABCA-1 gene
O=C(Nc1nc2ccccc2s1)c1cc2ccccc2s1 [benzo[b]thiophen-2-yl-N-benzothiazol-2-ylcarboxamide] | elevate cellular expression of the ABCA-1 gene
CCc1c(C(=O)NCCC(C)C)cnn1-c1nc(-c2ccc(OC)cc2)cs1 [{5-ethyl-1-[4-(4-methoxyphenyl)(1,3-thiazol-2-yl)]pyrazol-4-yl}-N-(3-methylbutyl)carboxamide] | elevate cellular expression of the ABCA-1 gene
O=C(Nc1ccc2c(c1)CCC2)c1ccco1 [2-furyl-N-indan-5-ylcarboxamide] | elevate cellular expression of the ABCA-1 gene
O=C(Nc1nc2ccccc2s1)c1cc(C(F)(F)F)cc(C(F)(F)F)c1 [N-benzothiazol-2-yl[3,5-bis(trifluoromethyl)phenyl]carboxamide] | elevate cellular expression of the ABCA-1 gene
Cc1ccc(-c2csc(-n3ncc(C(=O)NC(C)c4ccccc4)c3C(C)C)n2)cc1 (stereo not drawn) [5-isopropyl-1-(4-p-tolyl-thiazol-2-yl)-1H-pyrazole-4-carboxylic acid (1-phenyl-ethyl)-amide] | elevate cellular expression of the ABCA-1 gene
O=C(NC1=NCCS1)c1cccc(Cl)c1 [(3-chlorophenyl)-N-(1,3-thiazolin-2-yl)carboxamide] | elevate cellular expression of the ABCA-1 gene
O=C(NCCc1ccccc1)c1ccc2ccccc2c1 [2-naphthyl-N-(2-phenylethyl)carboxamide] | elevate cellular expression of the ABCA-1 gene

From patent US6900219B2, “ABCA-1 elevating compounds” (CV Therapeutics, Inc., priority 2002, dated 2005)
